Experimental data published in PubChem BioAssay (NCI).
Several values for one entry are separate records, joined by “and”; a condition that tells them apart may be missing. Equal values may be shown once.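 1) Cells in 96-well plates. 2) Compound, 48 h, 5 concentrations. 3) Linear interpolation between surrounding doses. 4) Unreached endpoint = highest concentration. GI50: concentration for 50% inhibition of growth. TGI: concentration producing complete growth inhibition.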

Assays:
Assay in all cases: NCI anticancer screen, dose series, 48 h
LOX IMVI melanoma = test system: LOX IMVI melanoma
SNB-19 CNS = test system: SNB-19 CNS
RXF 393 renal = test system: RXF 393 renal
HOP-92 NSCLC = test system: HOP-92 NSCLC
UACC-62 melanoma = test system: UACC-62 melanoma
COLO 205 colon = test system: COLO 205 colon
CCRF-CEM leukemia = test system: CCRF-CEM leukemia
SF-295 CNS = test system: SF-295 CNS
MOLT-4 leukemia = test system: MOLT-4 leukemia
EKVX NSCLC = test system: EKVX NSCLC

Row | SMILES | GI50 (LOX IMVI melanoma) | TGI (LOX IMVI melanoma) [µM] | GI50 (SNB-19 CNS) [µM] | TGI (SNB-19 CNS) [µM] | GI50 (RXF 393 renal) | TGI (RXF 393 renal) [µM] | GI50 (HOP-92 NSCLC) [µM] | TGI (HOP-92 NSCLC) [µM] | GI50 (UACC-62 melanoma) [µM] | TGI (UACC-62 melanoma) [µM] | GI50 (COLO 205 colon) [µM] | TGI (COLO 205 colon) [µM] | GI50 (CCRF-CEM leukemia) [µM] | TGI (CCRF-CEM leukemia) | GI50 (SF-295 CNS) | TGI (SF-295 CNS) | GI50 (MOLT-4 leukemia) [µM] | TGI (MOLT-4 leukemia) | GI50 (EKVX NSCLC) [µM] | TGI (EKVX NSCLC) [µM]
1 | Cc1nc2ccccc2c(/C=C/c2ccc(C(F)(F)F)cc2)c1C(=O)/C=C/c1ccccc1 | 1.58 µM | 2.94 | 1.64 | 3.01 | 1.46 µM | 2.81 | 1.32 | 2.98 | 1.49 | 3 | 1.55 | 3.82 | 0.675 | > 100 µM | 1.77 µM | 3.22 µM | 0.508 | 5.79 µM | 1.61 | 2.99
2 | CCOC(=O)c1ccc(N[C@@H]2c3cc4c(cc3C(c3cc(OC)c(O)c(OC)c3)[C@H]3C(=O)OCC32)OCO4)cc1 (some centres undefined) | 0.217 µM and 0.118 µM | 1.61 | 0.261 | 22.2 | 0.426 µM and 1.95 µM | 5.93 | 0.35 | – | 0.382 | 4.08 | 0.833 | 7.68 | 0.116 | 0.925 µM and 1.81 µM | 0.238 µM and 0.241 µM | 0.904 µM and 2.2 µM | 0.0271 | 0.219 µM and 0.158 µM | 0.591 | 9.17
3 | NNC(=S)N/N=C(\c1nc2ccc(Cl)cc2[nH]c1=O)C(O)c1cccc([N+](=O)[O-])c1 (centres undefined) | – | > 56.6 | – | > 100 | – | > 100 | – | > 100 | – | > 100 | – | > 58.4 | – | > 100 µM | – | > 100 µM | – | > 100 µM | – | > 100
4 | CC[C@@]1(O)C(=O)OCc2c1cc1n(c2=O)Cc2cc3c(N)c(OC)ccc3nc2-1 | 0.0216 µM | 0.151 | < 0.0238 | > 61.9 | 0.0708 µM | 0.426 | 0.185 | 1.85 | < 0.01 | 0.0285 | 0.263 | 2.69 | < 0.01 | 0.0409 µM | 0.0267 µM | 0.41 µM | < 0.01 | 0.0711 µM | 0.574 | > 100
5 | O=C1CC2=CCCC2O1 (centres undefined) | – | > 100 | – | > 100 | – | > 100 | – | > 100 | – | > 100 | – | > 100 | – | > 100 µM | – | > 100 µM | – | > 100 µM | – | > 100
6 | O=C1c2ccccc2C(=O)N1CCN(CCN1C(=O)c2ccccc2C1=O)Cc1ccccc1 | – | > 100 | – | > 100 | – | > 100 | – | > 100 | – | > 100 | – | > 100 | – | > 100 µM | – | > 100 µM | – | > 100 µM | – | > 100
7 | CC(=O)OC1C(C)OC(Oc2c(-c3ccc(O)cc3)oc3cc(O)cc(O)c3c2=O)C(O)C1OC(C)=O (centres undefined) | 21 µM | 50.2 | 36.2 | > 100 | 24.2 µM | 71.8 | 13.2 | 54.3 | 21.4 | > 60.5 | > 67.3 | > 100 | 30.2 | > 100 µM | 29.9 µM | > 100 µM | 26.7 | > 75 µM | 54.2 | > 100
8 | CC1=C(C(=O)Nc2cc(F)c(F)cc2F)C(c2ccc(N(C)C)cc2)C(C(=O)Nc2cc(F)c(F)cc2F)=C(C)N1 | – | > 100 | – | > 100 | – | 64.3 | – | 15.2 | 12.2 | 89.8 | – | > 100 | – | > 85.9 µM | – | > 77.2 µM | – | > 77.2 µM | – | 75.6
9 | COc1cccc2c1C(=O)c1c(O)c3c(c(O)c1C2=O)C[C@@](O)(C(=O)CO)C[C@@H]3OC1CC2C(OCN2CN2COC3C(C)OC(O[C@H]4C[C@](O)(C(=O)CO)Cc5c(O)c6c(c(O)c54)C(=O)c4c(OC)cccc4C6=O)CC32)C(C)O1 (some centres undefined) | 0.002 µM | 0.0328 | 0.00292 | 0.0256 | 0.000978 µM | 0.0101 | 0.00606 | > 0.293 | 0.0032 | 0.0159 | 0.00664 | 0.0216 | 0.000537 | 0.0221 µM | 0.0024 µM | 0.0259 µM | 0.000203 | 0.00801 µM | 0.0393 | > 1
10 | CCOC(=O)CCC(NC(=O)c1ccc(Oc2nc3cc(N)cc(N)c3nc2-c2ccccc2)cc1)C(=O)OCC (centres undefined) | 11.9 µM | 26.1 | 31.6 | > 100 | 43.9 µM | > 100 | 30.1 | > 100 | 16.1 | 31 | 29.9 | > 100 | 12.4 | > 100 µM | 40.6 µM | > 100 µM | 39 | > 100 µM | 62 | > 100
11 | Nc1ncnc2c1ncn2C1OC(F)(COS(N)(=O)=O)C(O)C1O (centres undefined) | > 100 µM | > 100 | > 100 | > 100 | 97.9 µM | > 100 | 36.3 | > 100 | > 100 | > 100 | > 100 | > 100 | > 100 | > 100 µM | > 100 µM | > 100 µM | > 100 | > 100 µM | > 100 | > 100
12 | Cc1ccccc1-c1cc(=O)c2cc(C)c(C)c(C(=O)O)c2o1 | – | > 100 | – | > 100 | – | – | – | > 100 | – | > 100 | – | > 100 | – | > 100 µM | – | > 100 µM | – | > 100 µM | – | > 100
13 | COC(=O)N1C=CC2=C(C)C3Nc4ccccc4C3C(C)=C2C1 (centres undefined) | – | 20.1 | – | > 100 | – | – | – | 10.1 | – | 6.89 | – | 6.66 | – | 15.9 µM | – | 17.9 µM | – | 12.3 µM | – | > 100
14 | COc1cc2c(cc1OCCCN1CCN(CCCOc3cc4c(cc3OC)C(=O)N3C[C@H](F)C[C@H]3C=N4)CC1)N=C[C@@H]1C[C@@H](F)CN1C2=O | 0.0176 µM | 0.145 | 0.758 | > 41.6 | – | – | 0.064 | 14.6 | 0.0223 | 0.145 | 0.0373 | 0.193 | < 0.01 | 1.49 µM | 0.0457 µM | > 100 µM | < 0.018 | 1.68 µM | 0.273 | 16.3
15 | Cc1nc2ccccc2c(/C=C/c2ccc(F)cc2)c1C(=O)/C=C/c1ccccc1 | 1.69 µM | 3.11 | 1.88 | 4.02 | 1.74 µM | 3.26 | 2.02 | 31.5 | 1.86 | 4.04 | – | – | 2.44 | > 100 µM | 4.72 µM | > 100 µM | 1.74 | 6.57 µM | 4.38 | 43.5
